The record followed here is patent US20120165310A1, “ETHER DERIVATIVES OF BICYCLIC HETEROARYLS” (NOVARTIS AG, priority 2009, published 2012).

The target of the assay is T1, IGF-1R (Homo sapiens, UniProt P08069).
T1 construct: expressed in transfected cells; host or cells: Hek293 (Hek293-IGF1R)
Kind of assay: Cellular IGF-1R assay: capture ELISA (MSD) of receptor phosphorylation in Hek293 cells. It is filed as cell-based. The settings on record: Hek293-IGF1R cells, 1 h pre-incubation, 10 min IGF stimulation, pIGF1R capture ELISA. Here is the method: (§1) In this assay the activity of the compounds of the invention against Insulin-like growth factor I (IGF-I) induced autophosphorylation of the IGF-IR was determined. The assay was conducted as follows: Compound-mediated inhibition of IGF1R and INSR phosphorylation in Hek293 cells transduced with the corresponding receptors was assessed in a capture ELISA format using the MSD (Meso Scale Discovery) platform. Briefly, 30,000 cells washed and diluted in starvation medium (DMEM high glucose supplemented with 0.1% BSA) were seeded in 90 μL per well into 96-well plates pre-coated with poly-D-lysine (0.1 mg/mL in PBS/O). After 24 h incubation at 37° C. and 5% CO2, dose-response effects were determined with 3-fold serial compound dilutions, starting at 10 μM. The final vehicle concentration is 0.1% DMSO in all wells. Following pre-incubation with compounds for 1 h, receptor phosphorylation was triggered by a 10 min exposure to 1.0 ng/μL IGF for Hek293-IGF1R cells, and 5.0 ng/μL insulin for Hek293-InsR cells. Cell lysis was achieved by addition of 80 μL MSD lysis buffer per aspirated well, incubation on ice for 20 min, and a freeze-thaw cycle. Target phosphorylation was then assessed by transferring volumes corresponding to approx. 6 μg Hek293-IGF1R or 0.6 μg Hek293-InsR lysates to MSD assay plates pre-coated with total-IGF1R or total-InsR Abs, respectively. […] Immune complexes were detected by a SULFO-Tag™-coupled anti-rabbit IgG antibody in the presence of 150 μL MSD read-buffer. Light emission at 620 nm triggered by application of electric current was recorded on a MSD Sectorlmager 6000. Acquired raw data (mean Ru-ECL units) were processed in an Excel analysis template. The plate blank (MSD lysis buffer) was subtracted from all data points. The effect of a particular test compound concentration on receptor phosphorylation was expressed relative to the window defined by ligand-stimulated vs unstimulated control cells (set as 100%). IC50 values [nM] were determined using 4-parametric curve-fitting (XLfit software, V4.3.2).
as §1, with “Compound-mediated” for “In this assay the activity of the compounds of the invention against Insulin-like growth factor I (IGF-I) induced autophosphorylation of the IGF-IR was determined. The assay was conducted as follows: Compound-mediated”, “cells trans-duced” for “cells transduced”, “receptors were” for “receptors was”, “concentration was” for “concentration is”, “for Hek293-IGF1 R” for “for Hek293-IGF1R”, “with total-IGF1 R” for “with total-IGF1R”
On the technique in general: An ELISA detects its analyte on a solid surface through an enzyme-linked reagent.

T1 sequence (P08069 31-1367): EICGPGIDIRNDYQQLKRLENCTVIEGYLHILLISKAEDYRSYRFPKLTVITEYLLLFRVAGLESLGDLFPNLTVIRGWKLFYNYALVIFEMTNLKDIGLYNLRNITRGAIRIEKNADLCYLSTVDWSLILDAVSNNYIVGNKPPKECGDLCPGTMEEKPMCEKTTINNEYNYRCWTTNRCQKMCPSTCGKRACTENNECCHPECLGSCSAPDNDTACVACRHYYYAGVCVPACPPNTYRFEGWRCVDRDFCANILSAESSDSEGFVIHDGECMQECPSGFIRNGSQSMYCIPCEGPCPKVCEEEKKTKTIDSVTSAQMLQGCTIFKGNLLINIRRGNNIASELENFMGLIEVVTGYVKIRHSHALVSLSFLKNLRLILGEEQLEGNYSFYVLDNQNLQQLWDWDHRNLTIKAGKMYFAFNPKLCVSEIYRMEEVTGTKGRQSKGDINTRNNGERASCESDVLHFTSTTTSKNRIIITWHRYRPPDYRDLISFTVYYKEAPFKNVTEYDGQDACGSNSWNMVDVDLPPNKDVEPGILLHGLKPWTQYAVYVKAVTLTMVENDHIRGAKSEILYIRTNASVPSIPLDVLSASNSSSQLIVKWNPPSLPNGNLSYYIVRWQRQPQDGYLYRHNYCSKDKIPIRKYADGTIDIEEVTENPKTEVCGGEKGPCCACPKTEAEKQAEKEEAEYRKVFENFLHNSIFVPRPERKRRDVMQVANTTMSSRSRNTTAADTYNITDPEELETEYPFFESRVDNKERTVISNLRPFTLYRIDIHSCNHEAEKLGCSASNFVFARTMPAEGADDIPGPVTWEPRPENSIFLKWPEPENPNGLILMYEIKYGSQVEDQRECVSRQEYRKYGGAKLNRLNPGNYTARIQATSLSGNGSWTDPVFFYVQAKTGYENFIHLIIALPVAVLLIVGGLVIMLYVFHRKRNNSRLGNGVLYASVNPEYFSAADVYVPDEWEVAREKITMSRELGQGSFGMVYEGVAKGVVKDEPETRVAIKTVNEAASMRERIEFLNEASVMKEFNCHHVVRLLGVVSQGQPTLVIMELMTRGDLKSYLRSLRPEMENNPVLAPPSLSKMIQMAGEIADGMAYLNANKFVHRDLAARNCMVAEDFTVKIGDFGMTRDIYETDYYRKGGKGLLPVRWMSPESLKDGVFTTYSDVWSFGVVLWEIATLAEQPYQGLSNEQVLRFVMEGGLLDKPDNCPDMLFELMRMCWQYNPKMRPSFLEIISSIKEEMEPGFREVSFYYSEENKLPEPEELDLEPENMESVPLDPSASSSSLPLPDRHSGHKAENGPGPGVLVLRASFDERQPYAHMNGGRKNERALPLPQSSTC

For `Nc1ncnc2c1c(-c1cccc(OCC34CCC(CC3)O4)c1)cn2C1CC(CN2CCC[C@H]2CO)C1` (stereo partly drawn) [Example 25, [(S)-1-(3-{4-amino-5-[3-(7-oxa-bicyclo[2.2.1]hept-1-ylmethoxy)-phenyl]-pyrrolo[2,3-d]pyrimidin-7-yl}-cyclobutylmethyl)-pyrrolidin-2-yl]-methanol], the 50% inhibitory concentration (IC50) (usually the midpoint of a concentration-inhibition curve) fell in the range of 4 to 14 nM. `CC1(C)CCC(COc2cccc(-c3cn(C4CCC(N5CCC[C@H]5C(N)=O)CC4)c4ncnc(N)c34)c2)O1` (stereo partly drawn) [Example 69, (S)-1-(4-{4-amino-5-[3-(5,5-dimethyl-tetrahydro-furan-2-ylmethoxy)-phenyl]-pyrrolo[2,3-d]pyrimidin-7-yl}-cyclohexyl)-pyrrolidine-2-carboxylic acid amide] had a half-maximal inhibitory concentration (IC50) of 388 nM. `CC1(C)CN(CC2CC(n3cc(-c4cccc(OCC5CCCCO5)c4)c4c(N)ncnc43)C2)[C@H](C(N)=O)CO1` (stereo partly drawn) [Example 98, (3S)-4-((3-(4-amino-5-(3-((tetrahydro-2H-pyran-2-yl)methoxy)phenyl)-7H-pyrrolo[2,3-d]pyrimidin-7-yl)cyclobutyl)methyl)-6,6-dimethylmorpholine-3-carboxamide] returned an IC50 of 28 nM. Turning to `NC(=O)[C@@H]1COCCN1C[C@H]1C[C@@H](n2cc(-c3cccc(OCC4CCCCO4)c3)c3c(N)ncnc32)C1` (stereo partly drawn) [Example 96, (3S)-cis-4-((3-(4-amino-5-(3-((tetrahydro-2H-pyran-2-yl)methoxy)phenyl)-7H-pyrrolo[2,3-d]pyrimidin-7-yl}-cyclobutyl)methyl)morpholine-3-carboxamide], 59 nM corresponded to half-maximal inhibition (IC50). In the case of `COC(=O)NC[C@]1(O)C[C@H](n2cc(-c3cccc(OCC45CCC(CC4)O5)c3)c3c(N)ncnc32)C1` [Example 218, (E)-(3-{4-Amino-5-[3-(7-oxa-bicyclo[2.2.1]hept-1-ylmethoxy)-phenyl]-pyrrolo[2,3-d]pyrimidin-7-yl}-1-hydroxy-cyclobutylmethyl)-carbamic acid methyl ester] it was 404 nM; in that of `Nc1ncnc2c1c(-c1cccc(OCC3CCCCO3)c1)cn2[C@H]1C[C@@H](CN2CC(O)C2)C1` (relative stereo) [Example 28, 1-(cis-3-{4-amino-5-[3-(tetrahydro-pyran-2-ylmethoxy)-phenyl]-pyrrolo[2,3-d]pyrimidin-7-yl}-cyclobutylmethyl)-azetidin-3-ol], 294 nM. Compound `CN1CCN([C@H]2CC[C@@H](n3cc(-c4cccc(OCC56CCC(CC5)O6)c4)c4c(N)ncnc43)CC2)CC1=O` [Example 143, 4-((1S,4S)-4-(5-(3-(7-oxabicyclo[2.2.1]heptan-1-ylmethoxy)phenyl)-4-amino-7H-pyrrolo[2,3-d]pyrimidin-7-yl)cyclohexyl)-1-methylpiperazin-2-one] registered an IC50 of 319 to 534 nM. Compound `Nc1ncnc2c1c(-c1cccc(OCC34CCC(CC3)O4)c1)cn2C1CC(O)(CN2CCCC2CO)C1` (single isomer, unassigned) [Example 202] displayed an IC50 of 390 nM. In other words, the sub-micromolar range. On to `CSC[C@H]1C[C@@H](n2cc(-c3cccc(OC[C@H]4CCCCO4)c3)c3c(N)ncnc32)C1` (relative stereo) [Example 152, 7-(cis-3-methylsuphanylmethyl-cyclobutyl)-5-{3-[(R)-1-(tetrahydro-pyran-2-yl)methoxy]-phenyl}-7H-pyrrolo[2,3-d]pyrimidin-4-ylamine], for which the IC50 came to 281 nM.

Compound `CN1CCN(C[C@]2(O)C[C@@H](n3cc(-c4cccc(OCC56CCC(CC5)O6)c4)c4c(N)ncnc43)C2)CC1` [Example 123, (Z)-3-{4-Amino-5-[3-(7-oxa-bicyclo[2.2.1]hept-1-ylmethoxy)-phenyl]-pyrrolo[2,3-d]pyrimidin-7-yl}-1-(4-methyl-piperazin-1-ylmethyl)-cyclobutanol] yielded an IC50 of 69 nM. In turn, `Nc1ncnc2c1c(-c1cccc(OCC3CCCCO3)c1)cn2[C@H]1C[C@@H](CN2CCCC2C(=O)O)C1` (relative stereo) [Example 92, 1-(cis-3-{4-amino-5-[3-(tetrahydro-pyran-2-ylmethoxy)-phenyl]-pyrrolo[2,3-d]pyrimidin-7-yl}-cyclobutylmethyl)-pyrrolidine-2-carboxylic acid] returned an IC50 of 559 nM. In the case of `Nc1ncnc2c1c(-c1cccc(OCC34CCC(CC3)O4)c1)cn2[C@H]1C[C@@](O)(CN2CCS(=O)(=O)CC2)C1` [Example 205, (E)-3-{4-Amino-5-[3-(7-oxa-bicyclo[2.2.1]hept-1-ylmethoxy)-phenyl]-pyrrolo[2,3-d]pyrimidin-7-yl}-1-(1,1-dioxo-1lambda*6*-thiomorpholin-4-ylmethyl)-cyclobutanol], the IC50 amounted to 14 nM. Take `NC(=O)[C@@H]1CCCN1C[C@H]1C[C@@H](n2cc(-c3cccc(OCC45CCC(CC4)O5)c3)c3c(N)ncnc32)C1` [Example 68, (S)-1-(cis-3-(4-amino-5-[3-(7-oxa-bicyclo[2.2.1]hept-1-ylmethoxy)-phenyl]-pyrrolo[2,3-d]pyrimidin-7-yl)-cyclobutylmethyl)-pyrrolidine-2-carboxylic acid amide]: the IC50 worked out at 12 nM.

Take `Nc1ncnc2c1c(-c1cccc(OCC34CCC(CC3)O4)c1)cn2[C@H]1C[C@@H](CN2CCC(O)CC2)C1` (relative stereo) [Example 184, 1-(cis-3-{4-Amino-5-[3-(7-oxa-bicyclo[2.2.1]hept-1-ylmethoxy)-phenyl]-pyrrolo[2,3-d]pyrimidin-7-yl}-cyclobutylmethyl)-piperidin-4-ol]: the IC50 came to 9 nM.

As to `Nc1ncnc2c1c(-c1cccc(OCC3CCCCO3)c1)cn2[C@H]1C[C@@H](CN2CCC2)C1` (mixture of isomers) [Example 1, (rac)-cis-7-(3-azetidin-1-ylmethyl-cyclobutyl)-5-[3-(tetrahydro-pyran-2-ylmethoxy)-phenyl]-7H-pyrrolo[2,3-d]pyrimidin-4-ylamine], the IC50 was 119 to 139 nM. `CN1CCC(N2CC[C@@H](n3cc(-c4cccc(OCC56CCC(CC5)O6)c4)c4c(N)ncnc43)C2)CC1` [Example 216, 7-[(R)-1-(1-Methyl-piperidin-4-yl)-pyrrolidin-3-yl]-5-[3-(7-oxa-bicyclo[2.2.1]hept-1-ylmethoxy)-phenyl]-7H-pyrrolo[2,3-d]pyrimidin-4-ylannine] displayed an IC50 of 80 nM. Next, `Nc1ncnc2c1c(-c1cccc(OCC34CCC(CC3)O4)c1)cn2[C@H]1CC[C@@H](Cn2ccnc2)CC1` [Example 148, 7-((1S,4S)-4-((1H-imidazol-1-yl)methyl)cyclohexyl)-5-(3-(7-oxabicyclo[2.2.1]heptan-1-ylmethoxy)phenyl)-7H-pyrrolo[2,3-d]pyrimidin-4-amine]: 247 nM; `NC(=O)[C@@H]1CCCN1C[C@H]1C[C@@H](n2cc(-c3cccc(OCC4CCCO4)c3)c3c(N)ncnc32)C1` (stereo partly drawn) [Example 76, (S)-1-(cis-3-{4-amino-5-[3-(tetrahydro-furan-2-ylmethoxy)-phenyl]-pyrrolo[2,3-d]pyrimidin-7-yl}-cyclobutylmethyl)-pyrrolidine-2-carboxylic acid amide]: 39 nM; `NC(=O)[C@H]1CCCN1CC1(O)CC(n2cc(-c3cccc(OCC45CCC(CC4)O5)c3)c3c(N)ncnc32)C1` (stereo partly drawn) [Example 212, (R)-(E)-1-(3-{4-Amino-5-[3-(7-oxa-bicyclo[2.2.1]hept-1-ylmethoxy)-phenyl]-pyrrolo[2,3-d]pyrimidin-7-yl}-1-hydroxy-cyclobutylmethyl)-pyrrolidine-2-carboxylic acid amide]: 312 nM.
